Assay results: patent US9890147B2 (BAYER PHARMA AKTIENGESELLSCHAFT, priority 2012, dated 2018)

Columns and labels:
BRD4 (BD1) = biological target: T1, BRD4 (BD1) (Homo sapiens, UniProt O60885); test: Binding assay BRD4/acetylated peptide H4 (TR-FRET protein-protein interaction assay)
T1 construct: with relatively long constructs also being possible, preferably amino acids 44-168; made in house; host or cells: E. coli
Outline: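 Displacement of biotin-Ac-H4 peptide from His6-tagged BRD4(BD1), final usually 10 nM, read as Eu-streptavidin to anti-His-XL665 TR-FRET (665/620 nm). Compounds tested at 11 doses up to 20 μM in duplicate, pH 7.5 HEPES, 22 °C then 4 °C incubation; IC50 by 4-parameter regression.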

MOLM-13 cells = test: Cell proliferation assay (alamarBlue), MOLM-13; format: cell-based; conditions: Homo sapiens, 96 hours incubation, inhibition of cell proliferation
Outline: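 IC50 = concentration giving 50% growth inhibition relative to buffer-treated cells, after subtracting baseline fluorescence taken before dosing. Compound applied at 1E-5 to 1E-8 M for 96 h at 37 °C in RPMI1640 with 10% FCS; alamarBlue signal at 530/590 nm.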

MV4-11 cells = test: Cell proliferation assay (alamarBlue), MV4-11; format: cell-based; conditions: Homo sapiens, 72 hours incubation, inhibition of cell proliferation
Outline: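 Cells seeded at 5000/well in RPMI1640 + 10% FCS, incubated overnight at 37° C, then treated with compound (1E-5 to 1E-8 M) for 72 h at 37° C. Viability by alamarBlue fluorescence (ex 530/em 590 nm); pre-treatment readings subtracted, IC50 derived versus buffer-treated cells.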

B16F10 cells = test: Cell proliferation assay (alamarBlue), B16F10; format: cell-based; conditions: Mus musculus, B16-F10, 96 hours incubation, inhibition of cell proliferation
Outline: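 alamarBlue fluorescence (ex 530/em 590 nm) read after overnight seeding at 300-500 cells/well in DMEM + 10% FCS, then after 96 h at 37 °C with compound at 1E-8 to 1E-5 M. Baseline subtracted from endpoint, compared with buffer-treated cells; IC50 = concentration giving 50% proliferation inhibition.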

LOX-IMVI cells = test: Cell proliferation assay (alamarBlue), LOX-IMVI; format: cell-based; conditions: Homo sapiens, 72 hours incubation, inhibition of cell proliferation
Outline: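 alamarBlue fluorescence (530 nm excitation, 590 nm emission) measured before dosing and after 72 h at 37° C exposure to 1E-5–1E-8 M compound; 1000 cells/well plated in RPMI1640/10% FCS the night before. IC50 from baseline-corrected signal relative to buffer-treated wells.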

MOLP-8 cells = test: Cell proliferation assay (alamarBlue), MOLP-8; format: cell-based; conditions: Homo sapiens, 120 hours incubation, inhibition of cell proliferation
Outline: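 MOLP-8 cells in RPMI1640 with 20% FCS, 4000 cells/well, treated overnight after seeding with substance at 1E-5 to 1E-8 M for 120 h at 37° C. Viability read by alamarBlue fluorescence (ex 530, em 590); pre-treatment values subtracted, compared with buffer-only cells to derive IC50.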

KMS-12-PE cells = test: Cell proliferation assay (alamarBlue), KMS-12-PE; format: cell-based; conditions: Homo sapiens, 120 hours incubation, inhibition of cell proliferation
Outline: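 KMS-12-PE myeloma cells in RPMI1640 with 20% FCS were exposed to compound (1E-5 to 1E-8 M) for 120 h at 37° C. AlamarBlue fluorescence (ex 530, em 590 nm) read before and after treatment; the difference versus buffer-treated cells gave IC50.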

LAPC-4 cells = test: Cell proliferation assay (alamarBlue), LAPC-4; format: cell-based; conditions: Homo sapiens, LAPC4; inhibition of cell proliferation, LAPC-4 (prostate cancer), 1 nM methyltrienolone, 168 hours
Description: (§1) In accordance with the invention, the capability of the substances to inhibit cell proliferation was determined Cell viability was determined using the alamarBlue® reagent (Invitrogen) in a Victor X3 Multilabel Reader (Perkin Elmer). The excitation wavelength was 530 nm and the emission wavelenth […].
The LAPC-4 cells (ATCC, PTA-1441TM) were sown at a concentration of 4000 cells/well in 100 μl growth medium (RPMI1640, 2 mM L-glutamine, 10% cFCS) on 96-well microtitre plates. A day later, the LAPC-4 cells were treated with 1 nM methyltrienolone and various substance dilutions.
(§2) After an overnight incubation at 37° C., the fluorescence values (CI values) were determined. The plates were then treated with various substance dilutions (1E-5 M, 3E-6 M, 1E-6M, 3E-7 M, 1E-7 M, 3E-8 M, 1E-8 M) and incubated at 37° C. for 72 (MV4-11-, LOX-IMVI cells), 96 (MOLM-13-, B16F10-, MDA-MB-431-, Caov-3 cells), 120 (MOLP-8-, KMS-12-PE cells) or 168 (LAPC-4 cells) hours. The fluorescence values (CO values) were then determined. For the data analysis, the CI values were subtracted from the CO values and the results were compared between cells treated with different dilutions of the substance or with buffer solution only. These were used to calculate the IC 50 values (substance concentration required for 50% inhibition of cell proliferation).

MDA-MB-231 cells = test: Cell proliferation assay (alamarBlue), MDA-MB-231; format: cell-based; conditions: Homo sapiens; inhibition of cell proliferation, MDA-MB-231 (breast carcinoma), 96 hours
Description: as §1
The MDA-MB-231 cells (DSMZ, ACC 732) were sown at a concentration of 4000 cells/well in 100 μl growth medium (DMEM/Ham's F12 medium, 10% FCS) on 96-well microtitre plates. The Caov-3 cells (ATCC, HTB-75) were sown at a concentration of 2000 cells/well in 100 μl growth medium (MEM Earle's medium, 10% FCS) on 96-well microtitre plates.
as §2

Caov-3 cells = test: Cell proliferation assay (alamarBlue), Caov-3; format: cell-based; conditions: Homo sapiens; inhibition of cell proliferation, Caov-3 (ovarian carcinoma), 96 hours
Outline: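 Caov-3 (MEM Earle's, 10% FCS, 2000 cells/well) and MDA-MB-231 (DMEM/Ham's F12, 10% FCS, 4000 cells/well) were treated after overnight attachment with 1E-5 to 1E-8 M compound. Caov-3 exposure was 96 h. alamarBlue fluorescence (ex 530, em 590 nm) was read after background subtraction of day-0 values, and IC50 calculated versus buffer-treated cells.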

Question: With CNC(=O)N1N=C(c2ccc(-c3c(C)noc3C)cc2)c2cc(OC)c(OC)cc2C[C@@H]1C [Example 2.2, (4S)-1-[4-(3,5-Dimethyl-4-isoxazolyl)phenyl]-7,8-dimethoxy-N,4-dimethyl-4,5-dihydro-3H-2,3-benzodiazepine-3-carboxamide] as the molecule, how does the IC50 (BRD4 (BD1)) read?
Answer: 60 nM

Question: And the IC50 (MOLM-13 cells)?
Answer: 130 nM

Question: And the IC50 (MV4-11 cells)?
Answer: 100 nM

Question: What about the IC50 (B16F10 cells) of the same molecule?
Answer: 110 nM

Question: What about the IC50 (LOX-IMVI cells) of the same molecule?
Answer: 330 nM

Question: And the IC50 (MOLP-8 cells)?
Answer: 120 nM

Question: What about the IC50 (KMS-12-PE cells) of the same molecule?
Answer: 110 nM

Question: And the IC50 (LAPC-4 cells)?
Answer: 90 nM

Question: And the IC50 (MDA-MB-231 cells)?
Answer: 200 nM

Question: What about the IC50 (Caov-3 cells) of the same molecule?
Answer: 250 nM

Question: With CNC(=O)N1N=C(c2ccc(-c3cccnc3Cl)cc2)c2cc(OC)c(OC)cc2CC1C (racemic) [Example 4, (±)-1-[4-(2-chloropyridin-3-yl)phenyl]-7,8-dimethoxy-N,4-dimethyl-4,5-dihydro-3H-2,3-benzodiazepine-3-carboxamide] as the molecule, how does the IC50 (BRD4 (BD1)) read?
Answer: 80 nM

Question: And the IC50 (MOLM-13 cells)?
Answer: 190 nM

Question: What about the IC50 (MV4-11 cells) of the same molecule?
Answer: 120 nM

Question: And the IC50 (B16F10 cells)?
Answer: 110 nM

Question: What about the IC50 (LOX-IMVI cells) of the same molecule?
Answer: 450 nM

Question: What about the IC50 (MOLP-8 cells) of the same molecule?
Answer: 170 nM

Question: What about the IC50 (KMS-12-PE cells) of the same molecule?
Answer: 110 nM

Question: What about the IC50 (LAPC-4 cells) of the same molecule?
Answer: 90 nM

Question: What about the IC50 (MDA-MB-231 cells) of the same molecule?
Answer: 170 nM

Question: What about the IC50 (Caov-3 cells) of the same molecule?
Answer: 320 nM

Question: For CNC(=O)N1N=C(c2ccc(-c3cc[nH]n3)cc2)c2cc(OC)c(OC)cc2CC1C (racemic) [Example 3, (±)-7,8-Dimethoxy-N,4-dimethyl-1-[4-(1H-pyrazol-3-yl)phenyl]-4,5-dihydro-3H-2,3-benzodiazepine-3-carboxamide], which IC50 (BRD4 (BD1)) is on record?
Answer: 50 nM

Question: What about the IC50 (MOLM-13 cells) of the same molecule?
Answer: 240 nM

Question: And the IC50 (MV4-11 cells)?
Answer: 260 nM

Question: What about the IC50 (B16F10 cells) of the same molecule?
Answer: 110 nM

Question: And the IC50 (LOX-IMVI cells)?
Answer: 950 nM

Question: What about the IC50 (MOLP-8 cells) of the same molecule?
Answer: 280 nM

Question: And the IC50 (KMS-12-PE cells)?
Answer: 230 nM

Question: What about the IC50 (LAPC-4 cells) of the same molecule?
Answer: 110 nM

Question: And the IC50 (MDA-MB-231 cells)?
Answer: 210 nM

Question: And the IC50 (Caov-3 cells)?
Answer: 550 nM

Question: Which IC50 (BRD4 (BD1)) does the source give for CNC(=O)N1N=C(c2ccc(N3CCC(O)CC3)cc2)c2cc(OC)c(OC)cc2C[C@@H]1C [Example 130.1, (4S)-1-[4-(4-hydroxypiperidin-1-yl)phenyl]-7,8-dimethoxy-N,4-dimethyl-4,5-dihydro-3H-2,3-benzodiazepine-3-carboxamide] here?
Answer: 20 nM

Question: What about the IC50 (MOLM-13 cells) of the same molecule?
Answer: 70 nM

Question: What about the IC50 (MV4-11 cells) of the same molecule?
Answer: 50 nM

Question: And the IC50 (B16F10 cells)?
Answer: 100 nM

Question: And the IC50 (LOX-IMVI cells)?
Answer: 190 nM

Question: What about the IC50 (MOLP-8 cells) of the same molecule?
Answer: 50 nM

Question: And the IC50 (KMS-12-PE cells)?
Answer: 70 nM

Question: What about the IC50 (LAPC-4 cells) of the same molecule?
Answer: 50 nM

Question: What about the IC50 (MDA-MB-231 cells) of the same molecule?
Answer: 140 nM

Question: And the IC50 (Caov-3 cells)?
Answer: 3 nM

Question: What does the source list for CNC(=O)N1N=C(c2ccc(N3CCOCC3)cc2)c2cc(OC)c(OC)cc2CC1C (racemic) [Example 7, (±)-7,8-Dimethoxy-N,4-dimethyl-1-[4-(morpholin-4-yl)phenyl]-4,5-dihydro-3H-2,3-benzodiazepine-3-carboxamide]?
Answer: IC50 (BRD4 (BD1)): 30 nM; IC50 (MOLM-13 cells): 200 nM; IC50 (MV4-11 cells): 170 nM; IC50 (B16F10 cells): 140 nM; IC50 (LOX-IMVI cells): 570 nM; IC50 (MOLP-8 cells): 120 nM; IC50 (KMS-12-PE cells): 90 nM; IC50 (LAPC-4 cells): 90 nM; IC50 (MDA-MB-231 cells): 250 nM; IC50 (Caov-3 cells): 400 nM

Question: Which results are given for CNC(=O)N1N=C(c2ccc(-c3c(C)nn(C)c3C)cc2)c2cc(OC)ccc2C[C@@H]1C [Example 22, (4S)-8-methoxy-N,4-dimethyl-1-[4-(1,3,5-trimethyl-1H-pyrazol-4-yl)phenyl]-4,5-dihydro-3H-2,3-benzodiazepine-3-carboxamide]?
Answer: IC50 (BRD4 (BD1)): 30 nM; IC50 (MOLM-13 cells): 80 nM; IC50 (MV4-11 cells): 880 nM; IC50 (B16F10 cells): 100 nM; IC50 (LOX-IMVI cells): 240 nM; IC50 (MOLP-8 cells): 90 nM; IC50 (KMS-12-PE cells): 110 nM; IC50 (LAPC-4 cells): 60 nM; IC50 (MDA-MB-231 cells): 150 nM; IC50 (Caov-3 cells): 110 nM

Question: With CNC(=O)N1N=C(c2ccc(-c3c(C)noc3C)cc2)c2cc(OC)c(OC)cc2CC1C (racemic) [Example 2, (±)-1-[4-(3,5-Dimethyl-4-isoxazolyl)phenyl]-7,8-dimethoxy-N,4-dimethyl-4,5-dihydro-3H-2,3-benzodiazepine-3-carboxamide] as the molecule, how does the IC50 (BRD4 (BD1)) read?
Answer: 80 nM

Question: What about the IC50 (MOLM-13 cells) of the same molecule?
Answer: 170 nM

Question: What about the IC50 (MV4-11 cells) of the same molecule?
Answer: 110 nM

Question: What about the IC50 (B16F10 cells) of the same molecule?
Answer: 180 nM

Question: What about the IC50 (LOX-IMVI cells) of the same molecule?
Answer: 430 nM

Question: And the IC50 (MOLP-8 cells)?
Answer: 120 nM

Question: And the IC50 (KMS-12-PE cells)?
Answer: 90 nM

Question: And the IC50 (LAPC-4 cells)?
Answer: 240 nM

Question: And the IC50 (MDA-MB-231 cells)?
Answer: 310 nM

Question: And the IC50 (Caov-3 cells)?
Answer: 310 nM

Question: Which results are given for CNC(=O)N1N=C(c2ccc(N3CCN(C)CC3)cc2)c2cc(OC)c(OC)cc2C[C@@H]1C [Example 127.1, (4S)-7,8-Dimethoxy-N,4-dimethyl-1-[4-(4-methylpiperazin-1-yl)phenyl]-4,5-dihydro-3H-2,3-benzodiazepine-3-carboxamide]?
Answer: IC50 (BRD4 (BD1)): 50 nM; IC50 (MOLM-13 cells): 110 nM; IC50 (MV4-11 cells): 70 nM; IC50 (B16F10 cells): 100 nM; IC50 (LOX-IMVI cells): 290 nM; IC50 (MOLP-8 cells): 60 nM; IC50 (KMS-12-PE cells): 90 nM; IC50 (LAPC-4 cells): 40 nM; IC50 (MDA-MB-231 cells): 130 nM; IC50 (Caov-3 cells): 170 nM
